According to publication PMC7044277 (Nature Communications, 2020):
Where “and” joins values, the source holds several entries; their conditions need not be identical. Equal values may be shown once.

Experiments:
5HT1F = target: T1, 5HT1F (Homo sapiens, UniProt P30939); experiment: β-arrestin2 recruitment (Tango); assay type: cell-based; conditions: single replicate values
T1 construct: expressed in transfected cells; host or cells: HTLA cells expressing TEV-fused β-arrestin2
T1 sequence (P30939 1-366): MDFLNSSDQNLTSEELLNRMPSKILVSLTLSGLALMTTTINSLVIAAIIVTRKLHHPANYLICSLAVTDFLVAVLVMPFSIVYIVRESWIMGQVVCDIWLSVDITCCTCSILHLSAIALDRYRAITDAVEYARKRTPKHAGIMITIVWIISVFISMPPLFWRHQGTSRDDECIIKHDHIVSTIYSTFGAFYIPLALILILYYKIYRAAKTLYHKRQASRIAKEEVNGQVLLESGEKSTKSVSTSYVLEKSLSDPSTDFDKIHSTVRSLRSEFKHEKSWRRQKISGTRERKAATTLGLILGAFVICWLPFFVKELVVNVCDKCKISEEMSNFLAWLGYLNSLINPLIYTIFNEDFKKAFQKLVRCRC

5HT2C = target: T2, 5HT2C (Homo sapiens, UniProt P28335); experiment: β-arrestin2 recruitment (Tango); assay type: cell-based; conditions: Fig_S10m; for β-arrestin2 recruitment response in presence of serotonin (replicate values): +10μM serotonin; for β-arrestin2 recruitment response (dose-response source data, replicate values): drug alone
T2 sequence (P28335 33-458): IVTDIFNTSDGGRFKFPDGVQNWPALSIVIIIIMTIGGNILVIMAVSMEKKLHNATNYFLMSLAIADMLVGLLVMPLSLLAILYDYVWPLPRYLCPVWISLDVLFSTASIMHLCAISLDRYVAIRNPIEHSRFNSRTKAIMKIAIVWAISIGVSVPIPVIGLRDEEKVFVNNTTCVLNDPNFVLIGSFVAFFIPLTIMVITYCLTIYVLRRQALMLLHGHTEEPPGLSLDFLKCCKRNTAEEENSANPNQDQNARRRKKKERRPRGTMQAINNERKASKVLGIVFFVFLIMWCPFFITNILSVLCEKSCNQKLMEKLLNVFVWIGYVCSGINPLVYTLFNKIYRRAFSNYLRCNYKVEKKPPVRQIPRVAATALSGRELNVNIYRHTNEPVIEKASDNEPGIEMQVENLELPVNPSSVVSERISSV

[1] = tested on: serotonin receptor of Fig_S10g (subtype not named); experiment: β-arrestin2 recruitment (Tango), agonist activity, panel Fig_S10g (serotonin as reference; receptor not given); assay type: cell-based, human

With `CCOc1cccc2cc([C@H](C)NCC3(O)CCCCC3)oc12` [O4SE6] the “Fig_S10j dose-response, drug alone (agonist mode), β-arrestin2 recruitment” value (“Fig_S10j dose-response, drug alone” for short) (5HT1F; Log[Drug] -5) was 0.3849 and -0.983 and 0.7697 and -1.569 and -1.842 and 2.318 and -0.9197 and -0.3475 and -1.47, the “Fig_S10j dose-response, drug alone” value (5HT1F; Log[Drug] -5.52) was 7.151 and 5.788 and -0.505 and -0.4698 and 0.6264 and -0.6469 and -1.685 and -0.2789 and -1.819 and the “Fig_S10j dose-response, drug alone” value (5HT1F; Log[Drug] -6) was 2.525 and 0.2795 and 1.682 and -0.463 and -1.025 and 2.25 and -2.251 and -0.6646 and -0.8511. For the same compound, the “Fig_S10j dose-response, drug alone” value (5HT1F; Log[Drug] -6.52) was 3.045 and 0.7943 and 0.9757 and -1.712 and -2.09 and -1.297 and -2.011 and -0.3459 and -1.811, the “Fig_S10j dose-response, drug alone” value (5HT1F; Log[Drug] -7) was 1.287 and -0.1961 and 3.15 and 1.852 and -1.692 and -1.42 and -0.2821 and 1.046 and -0.8687 and the “Fig_S10j dose-response, drug alone” value (5HT1F; Log[Drug] -7.52) was -0.2819 and 1.395 and 1.76 and -1.559 and -1.409 and -1.542 and -1.242 and 0.6631 and 0.4096. For the same compound, the “β-arrestin2 recruitment response in presence of serotonin (replicate values)” value (5HT2C; Log[Drug] -5) was 45.7461 and 51.1482 and 53.4841 and 61.6893 and 54.4017 and 57.753 and 67.2866 and 83.7427 and 85.1445, the “β-arrestin2 recruitment response (dose-response source data, replicate values)” value (5HT2C; Log[Drug] -5) was -3.262 and -0.5555 and 0.5642 and 1.204 and -0.4664 and 1.061 and -2.805 and 1.039 and 3.566 and the “β-arrestin2 recruitment response in presence of serotonin (replicate values)” value (5HT2C; Log[Drug] -5.52) was 76.8132 and 54.1781 and 71.9421 and 67.2323 and 56.1903 and 49.3738 and 64.9568 and 69.9468 and 71.0617. For the same compound, the “β-arrestin2 recruitment response (dose-response source data, replicate values)” value (5HT2C; Log[Drug] -5.52) was -3.477 and -1.313 and -1.505 and -0.3021 and 0.7731 and -0.1754 and 1.049 and -1.9165 and -0.666, the “β-arrestin2 recruitment response in presence of serotonin (replicate values)” value (5HT2C; Log[Drug] -6) was 57.6708 and 60.6404 and 63.9932 and 75.4508 and 75.7722 and 57.215 and 86.3739 and 65.9717 and 77.801 and the “β-arrestin2 recruitment response (dose-response source data, replicate values)” value (5HT2C; Log[Drug] -6) was 0.1892 and -1.167 and -2.9638 and 0.5481 and 0.639 and 4.5826 and 1.774 and -1.813 and -1.0517. For the same compound, the “β-arrestin2 recruitment response in presence of serotonin (replicate values)” value (5HT2C; Log[Drug] -6.52) was 49.4392 and 65.2785 and 58.4136 and 69.39 and 55.9424 and 71.2915 and 76.7849 and 85.9817 and 94.9705, the “β-arrestin2 recruitment response (dose-response source data, replicate values)” value (5HT2C; Log[Drug] -6.52) was 3.199 and -0.222 and 0.3914 and 1.323 and 0.05601 and 0.9925 and -1.994 and 1.303 and -2.122 and the “β-arrestin2 recruitment response in presence of serotonin (replicate values)” value (5HT2C; Log[Drug] -7) was 67.4184 and 56.2577 and 61.082 and 74.1195 and 66.0313 and 86.1338 and 77.8195 and 67.5788 and 79.0331. For the same compound, the “β-arrestin2 recruitment response (dose-response source data, replicate values)” value (5HT2C; Log[Drug] -7) was -0.4648 and -1.599 and 4.168 and 0.2351 and 1.745 and 2.334 and 14.5501 and 3.184 and 0.1487, the “β-arrestin2 recruitment response in presence of serotonin (replicate values)” value (5HT2C; Log[Drug] -7.52) was 57.9508 and 62.7389 and 68.9932 and 62.9857 and 78.9582 and 61.3863 and 70.1719 and 83.8296 and 68.1225 and the “β-arrestin2 recruitment response (dose-response source data, replicate values)” value (5HT2C; Log[Drug] -7.52) was -1.179 and -0.8967 and -0.04778 and 2.819 and 2.117 and -0.4591 and 1.974 and -0.9095 and 6.65. For the same compound, the “β-arrestin2 recruitment response in presence of serotonin (replicate values)” value (5HT2C; Log[Drug] -8) was 70.2712 and 69.291 and 73.2872 and 71.712 and 66.0148 and 66.2452 and 79.2674 and 70.1943 and 78.2394, the “β-arrestin2 recruitment response (dose-response source data, replicate values)” value (5HT2C; Log[Drug] -8) was -1.7418 and -1.636 and 0.2046 and 0.909 and -0.4958 and 0.1891 and 1.914 and -0.383 and 4.332 and the “β-arrestin2 recruitment response in presence of serotonin (replicate values)” value (5HT2C; Log[Drug] -8.52) was 72.9942 and 69.4566 and 60.9768 and 61.1778 and 82.5318 and 58.5381 and 71.529 and 76.0793 and 77.135. The “β-arrestin2 recruitment response (dose-response source data, replicate values)” value (5HT2C; Log[Drug] -8.52) was -0.5405 and -0.709 and 2.709 and 0.684 and 1.936 and 3.627 and 2.573 and 6.06 and -0.7082, the “β-arrestin2 recruitment response in presence of serotonin (replicate values)” value (5HT2C; Log[Drug] -9) was 65.7886 and 59.3306 and 51.1636 and 117.587 and 77.0604 and 77.3487 and 69.8244 and 87.7165 and 82.2092 and the “β-arrestin2 recruitment response (dose-response source data, replicate values)” value (5HT2C; Log[Drug] -9) was -2.125 and 1.403 and -1.228 and 0.9062 and -0.6032 and 0.5546 and 2.207 and 4.8202 and 4.806. For the same compound, the “β-arrestin2 recruitment response in presence of serotonin (replicate values)” value (5HT2C; Log[Drug] -9.52) was 71.3301 and 78.8962 and 71.9628 and 82.1452 and 81.8826 and 58.8025 and 76.3992 and 91.8022 and 69.3558, the “β-arrestin2 recruitment response (dose-response source data, replicate values)” value (5HT2C; Log[Drug] -9.52) was -0.7505 and -1.198 and -1.073 and 2.378 and 0.7896 and 2.704 and -0.6423 and 0.9477 and 0.7345 and the “response, single replicate of concentration-response curve” value (“response, single replicate” below) ([1]; Log[Drug] -6.52, drug alone) was -6.59. For the same compound, the “response, single replicate” value ([1]; Log[Drug] -7, drug alone) was -3.19 and -7.082 and 4.545 and 9.195 and -2.738 and -3.211 and 7.129 and -1.468 and 1.444, the “response, single replicate” value ([1]; Log[Drug] -7.52, drug alone) was -9.03 and -3.911 and 11.866 and -9.097 and -3.819 and 15.0981 and -7.146 and 2.056 and -13.2444 and the “response, single replicate” value ([1]; Log[Drug] -8, drug alone) was -6.944 and -3.717 and -3.146 and 13.9874 and -6.035 and -6.807 and 15.6877 and -18.2271 and -10.0032. For the same compound, the “response, single replicate” value ([1]; Log[Drug] -8.52, drug alone) was -4.818 and -1.578 and 1.598 and 2.984 and 0.747 and -7.738 and -15.1053 and -13.4017 and -9.68, the “response, single replicate” value ([1]; Log[Drug] -9, drug alone) was -4.766 and 4.75 and -7.577 and 4.415 and 0.09191 and 14.1047 and 1.581 and -6.014 and 1.453 and the “response, single replicate” value ([1]; Log[Drug] -9.52, drug alone) was -5.307 and -4.4569 and -8.217 and -4.562 and -1.4705 and 8.897 and -2.656 and -20.9208 and -10.1255. The “response, single replicate” value ([1]; Log[Drug] -10, drug alone) was -5.416 and -3.999 and 8.581 and -6.089 and 12.3409 and -9.7675 and -12.7406 and -13.5007 and -15.0762, the “response, single replicate” value ([1]; Log[Drug] -10.52, drug alone) was -6.121 and -0.8987 and -0.5671 and -2.839 and 2.161 and 0.6785 and -9.456 and -4.939 and -9.345 and the “response, single replicate” value ([1]; Log[Drug] -11, drug alone) was -4.41 and -4.674 and 2.4299 and -4.435 and -1.821 and -1.439 and -6.281 and -6.238 and -10.7545. For the same compound, the “response, single replicate” value ([1]; Log[Drug] -11.52, drug alone) was -9.9476 and -4.984 and -8.874 and -7.243 and 10.0217 and 14.7168 and -21.4945 and -11.4709 and -8.23 and the “response, single replicate” value ([1]; Log[Drug] -12, drug alone) was 2.568 and -7.302 and 4.735 and 18.6257 and 12.38 and 36.6159 and 18.9202 and -0.5417 and 1.31.
